This note sets out measurements from PMC11267363, “Supramolecular Nanofibers Ameliorate Bleomycin‐Induced Pulmonary Fibrosis by Restoring Autophagy” (Advanced Science, 2024).

In general, Kd refers to the equilibrium constant for the complex coming apart.

The target of one experiment is T1, human TRB3 protein (Homo sapiens, UniProt Q96RU7).
T1 construct: purchased Sino Biological 10731-H09B
T1 sequence (Q96RU7 1-358): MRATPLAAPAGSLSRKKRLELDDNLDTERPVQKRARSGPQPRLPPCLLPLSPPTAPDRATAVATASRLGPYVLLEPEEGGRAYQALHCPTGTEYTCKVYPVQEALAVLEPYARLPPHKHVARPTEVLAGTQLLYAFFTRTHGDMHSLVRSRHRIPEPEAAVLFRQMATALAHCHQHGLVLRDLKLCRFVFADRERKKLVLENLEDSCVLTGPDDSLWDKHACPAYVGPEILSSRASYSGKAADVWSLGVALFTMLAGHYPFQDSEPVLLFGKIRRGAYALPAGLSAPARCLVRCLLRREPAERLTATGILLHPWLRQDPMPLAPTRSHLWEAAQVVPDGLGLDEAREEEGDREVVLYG
Briefly: Microscale thermophoresis (MST) binding to TRB3. Particulars: Monolith NT.115, recombinant human TRB3, read-out: binding constant (KD). The method, then: To determine the effects of the self‐assembly factor “Ac‐GFFY” on the secondary structure of the A2 peptide fragment, Circular dichroism (CD) and Fourier transform infrared (FTIR) measurements were performed. […] We subsequently assessed the binding affinity between Ac‐GFFY‐A2 or A2 peptides to the human TRB3 protein or bovine serum albumin (BSA) using microscale thermophoresis (MST) assay, with BSA serving as the control group. […] Therefore, we labeled the peptide with the fluorescence group 7‐nitro‐1,2,3‐benzoxadiazole (NBD) to determine the cellular uptake via flow cytometer. The NBD‐labeled peptide was incubated with both of normal and activated MRC‐5 cells for 4 h, respectively. […] Collectively, under the action of supramolecular self‐assembly, the peptide assemblies with stable secondary conformation can not only be effectively absorbed by MRC‐5 cells but also have the potential to interfere with TRB3/p62 PPIs.
HR‐MS (Varian QFT‐ESI) was used to characterize the molecular weight of compounds. TEM (JEM100CXII) was performed at the Tecnai G2 F20 system, operating at 100 kV. Circular dichroism (CD) spectrum was obtained by a BioLogic (MOS‐450) system. Dynamic light scattering was measured by a ZETAPALS/BI‐200SM (BROOKHAVEN) system. Confocal laser scanning microscopy (CLSM) was measured by Leica TCS SP‐5. Flow cytometry (BD, FACS) was used to detect the cellular uptake. […]
On the technique in general: In MST a laser heats a spot of the sample, and binding alters the fluorescence response.

Experiment [1] has as its system TRB3/p62 PPIs in lung tissue. Briefly: Co-IP, western blot and q-PCR of lung tissues from bleomycin mice. It is filed as in vivo. Conditions: i.v. The method, then:
We attempted to elucidate the mechanism of Ac-GFFY-A2 peptide nanofibers in ameliorating bleomycin-induced lung fibrosis at the molecular level. The nanofibers were administered to the lung fibrosis mice model via intravenous (i.v.) injection, saline treatment as the control group. The mice were sacrificed on day 21 and lung tissues were harvested for the following detection. […] Those results confirmed the potential therapeutic efficacy of peptide nanofibers in pulmonary fibrosis at both the transcriptional and translational levels. […] Gene expression was determined relative to that of the endogenous reference gene (Gapdh) using the 2^-ΔΔCt method. […] The protein concentration was measured using BCA Protein Assay Kit (Thermo Scientific). […] The protein transferred PVDF membranes were incubated with following primary antibodies at 4°C overnight: Then the membranes were incubated with horseradish peroxidase (HRP)-conjugated secondary antibodies at room temperature for 1 h, and protein signals were detected using an enhanced chemiluminescence kit (Pierce). […] The co -precipitates were resolved using SDS-PAGE and detected with immunoblotting. […] Fluorescence imaging was performed using a IVIS Lumina II imaging (PerkinElmer, USA) at different time point post injection. […]
For orientation: Immunoblotting shows a protein as a band on a membrane.

Ac-GFFYGGWLTRLLQTK-OH [Ac-GFFY-A2]: the Kd on human TRB3 protein was roughly 19.1 µM. For the same substance, in experiment [1] (day 21, versus saline treatment control group), the “mRNA expression levels of Col 1, FN and α-SMA in lung tissues (q-PCR)” value was “significantly lower”. Further, the “TRB3/p62 interaction in lung tissue (co-IP)” value in experiment [1] (lung tissues harvested on day 21) is “could disturb the interaction between TRB3 and p62 in lung tissue”.
